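Results reflect a 48-hour exposure of cells in 96-well plates to compound at five concentrations. GI50 marks 50% less growth. TGI marks complete inhibition of growth.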
Columns and labels:
Experiment in all cases: NCI anticancer screen, dose series, 48 h
IGROV1 ovarian = tested on: IGROV1 ovarian
OVCAR-4 ovarian = tested on: OVCAR-4 ovarian
MCF7 breast = tested on: MCF7 breast
786-0 renal = tested on: 786-0 renal
LOX IMVI melanoma = tested on: LOX IMVI melanoma
NCI-H226 lung = tested on: NCI-H226 lung
SW-620 colon = tested on: SW-620 colon
HT29 colon = tested on: HT29 colon
MOLT-4 leukemia = tested on: MOLT-4 leukemia
SK-OV-3 ovarian = tested on: SK-OV-3 ovarian
COLO 205 colon = tested on: COLO 205 colon
A498 renal = tested on: A498 renal
UACC-62 melanoma = tested on: UACC-62 melanoma
OVCAR-5 ovarian = tested on: OVCAR-5 ovarian
SNB-19 CNS = tested on: SNB-19 CNS
U251 CNS = tested on: U251 CNS
MDA-MB-231 breast = tested on: MDA-MB-231 breast
MDA-MB-435 = tested on: MDA-MB-435
KM12 colon = tested on: KM12 colon
ACHN renal = tested on: ACHN renal
RPMI-8226 leukemia = tested on: RPMI-8226 leukemia
SK-MEL-5 melanoma = tested on: SK-MEL-5 melanoma
NCI-H522 lung = tested on: NCI-H522 lung
HOP-92 NSCLC = tested on: HOP-92 NSCLC
M14 melanoma = tested on: M14 melanoma
HCT-116 colon = tested on: HCT-116 colon
NCI-H23 lung = tested on: NCI-H23 lung
SK-MEL-2 melanoma = tested on: SK-MEL-2 melanoma
SR leukemia = tested on: SR leukemia
OVCAR-3 ovarian = tested on: OVCAR-3 ovarian
T-47D breast = tested on: T-47D breast
SN12C renal = tested on: SN12C renal
UO-31 renal = tested on: UO-31 renal
NCI-H460 lung = tested on: NCI-H460 lung
A549 NSCLC = tested on: A549 NSCLC
BT-549 breast = tested on: BT-549 breast
SF-539 CNS = tested on: SF-539 CNS
NCI/ADR-RES ovarian = tested on: NCI/ADR-RES ovarian
SF-295 CNS = tested on: SF-295 CNS
CAKI-1 renal = tested on: CAKI-1 renal
HCT-15 colon = tested on: HCT-15 colon
UACC-257 melanoma = tested on: UACC-257 melanoma
MALME-3M melanoma = tested on: MALME-3M melanoma
SF-268 CNS = tested on: SF-268 CNS
CCRF-CEM leukemia = tested on: CCRF-CEM leukemia
OVCAR-8 ovarian = tested on: OVCAR-8 ovarian
TK-10 renal = tested on: TK-10 renal
PC-3 prostate = tested on: PC-3 prostate
RXF 393 renal = tested on: RXF 393 renal
HS 578T breast = tested on: HS 578T breast
EKVX NSCLC = tested on: EKVX NSCLC
DU-145 prostate = tested on: DU-145 prostate
HOP-62 NSCLC = tested on: HOP-62 NSCLC
HCC-2998 colon = tested on: HCC-2998 colon
SNB-75 CNS = tested on: SNB-75 CNS
SK-MEL-28 melanoma = tested on: SK-MEL-28 melanoma
K-562 leukemia = tested on: K-562 leukemia
HL-60(TB) leukemia = tested on: HL-60(TB) leukemia

Oc1ccccc1C=Nc1ccccc1N=Cc1ccccc1O.[Cu+2]
GI50 (IGROV1 ovarian): 3.27 µM
TGI (IGROV1 ovarian): 20.1 µM
GI50 (OVCAR-4 ovarian): 5.79 µM
TGI (OVCAR-4 ovarian): 19 µM
GI50 (MCF7 breast): 2340 nM
TGI (MCF7 breast): 14.1 µM
GI50 (786-0 renal): 10.8 µM
TGI (786-0 renal): 24.7 µM
GI50 (LOX IMVI melanoma): 2850 nM
TGI (LOX IMVI melanoma): 13.3 µM
GI50 (NCI-H226 lung): 3.72 µM
TGI (NCI-H226 lung): 16.3 µM
GI50 (SW-620 colon): 10.6 µM
TGI (SW-620 colon): 24.4 µM
GI50 (HT29 colon): 13.7 µM
TGI (HT29 colon): 32 µM
GI50 (MOLT-4 leukemia): 3.84 µM
TGI (MOLT-4 leukemia): > 100 µM
GI50 (SK-OV-3 ovarian): 5.23 µM
TGI (SK-OV-3 ovarian): 18.3 µM
GI50 (COLO 205 colon): 3.45 µM
TGI (COLO 205 colon): 14.5 µM
GI50 (A498 renal): 7.66 µM
TGI (A498 renal): 20.8 µM
GI50 (UACC-62 melanoma): 3.13 µM
TGI (UACC-62 melanoma): 14.2 µM
GI50 (OVCAR-5 ovarian): 14.8 µM
TGI (OVCAR-5 ovarian): 36 µM
GI50 (SNB-19 CNS): 13 µM
TGI (SNB-19 CNS): 26.3 µM
GI50 (U251 CNS): 3.4 µM
TGI (U251 CNS): 14 µM
GI50 (MDA-MB-231 breast): 6.08 µM
TGI (MDA-MB-231 breast): 21.2 µM
GI50 (MDA-MB-435): 4.38 µM
TGI (MDA-MB-435): 17 µM
GI50 (KM12 colon): 3.5 µM
TGI (KM12 colon): 15 µM
GI50 (ACHN renal): 5.64 µM
TGI (ACHN renal): 22.2 µM
GI50 (RPMI-8226 leukemia): 2090 nM
TGI (RPMI-8226 leukemia): 40.8 µM
GI50 (SK-MEL-5 melanoma): 1660 nM
TGI (SK-MEL-5 melanoma): 3.46 µM
GI50 (NCI-H522 lung): 2550 nM
TGI (NCI-H522 lung): 12.3 µM
GI50 (HOP-92 NSCLC): 1030 nM
TGI (HOP-92 NSCLC): 8.9 µM
GI50 (M14 melanoma): 4.33 µM
TGI (M14 melanoma): 16.4 µM
GI50 (HCT-116 colon): 4.45 µM
TGI (HCT-116 colon): 16.9 µM
GI50 (NCI-H23 lung): 3.16 µM
TGI (NCI-H23 lung): 14 µM
GI50 (SK-MEL-2 melanoma): 5.81 µM
TGI (SK-MEL-2 melanoma): 19.5 µM
GI50 (SR leukemia): 13.2 µM
TGI (SR leukemia): > 100 µM
GI50 (OVCAR-3 ovarian): 3.35 µM
TGI (OVCAR-3 ovarian): 14.4 µM
GI50 (T-47D breast): 1680 nM
TGI (T-47D breast): 5.4 µM
GI50 (SN12C renal): 4.84 µM
TGI (SN12C renal): 18.7 µM
GI50 (UO-31 renal): 3000 nM
TGI (UO-31 renal): 15.6 µM
GI50 (NCI-H460 lung): 12.3 µM
TGI (NCI-H460 lung): 30 µM
GI50 (A549 NSCLC): 5.88 µM
TGI (A549 NSCLC): 18.2 µM
GI50 (BT-549 breast): 3.24 µM
TGI (BT-549 breast): 11.9 µM
GI50 (SF-539 CNS): 11.8 µM
TGI (SF-539 CNS): 27.7 µM
GI50 (NCI/ADR-RES ovarian): 2250 nM
TGI (NCI/ADR-RES ovarian): 8.38 µM
GI50 (SF-295 CNS): 5.91 µM
TGI (SF-295 CNS): 19.9 µM
GI50 (CAKI-1 renal): 2740 nM
TGI (CAKI-1 renal): 12.4 µM
GI50 (HCT-15 colon): 5.81 µM
TGI (HCT-15 colon): 24.8 µM
GI50 (UACC-257 melanoma): 4.08 µM
TGI (UACC-257 melanoma): 15.6 µM
GI50 (MALME-3M melanoma): 6.52 µM
TGI (MALME-3M melanoma): 21.2 µM
GI50 (SF-268 CNS): 4.35 µM
TGI (SF-268 CNS): 17.5 µM
GI50 (CCRF-CEM leukemia): 4.16 µM
TGI (CCRF-CEM leukemia): > 100 µM
GI50 (OVCAR-8 ovarian): 2480 nM
TGI (OVCAR-8 ovarian): 8.44 µM
GI50 (TK-10 renal): 10.5 µM
TGI (TK-10 renal): 23.8 µM
GI50 (PC-3 prostate): 3.49 µM
TGI (PC-3 prostate): 16.2 µM
GI50 (RXF 393 renal): 13.2 µM
TGI (RXF 393 renal): 26.6 µM
GI50 (HS 578T breast): 15.4 µM
TGI (HS 578T breast): 92 µM
GI50 (EKVX NSCLC): 8.62 µM
TGI (EKVX NSCLC): 23.6 µM
GI50 (DU-145 prostate): 5.13 µM
TGI (DU-145 prostate): 18.5 µM
GI50 (HOP-62 NSCLC): 2990 nM
TGI (HOP-62 NSCLC): 11.7 µM
GI50 (HCC-2998 colon): 7.95 µM
TGI (HCC-2998 colon): 20.9 µM
GI50 (SNB-75 CNS): 5.15 µM
TGI (SNB-75 CNS): 19.3 µM
GI50 (SK-MEL-28 melanoma): 10.5 µM
TGI (SK-MEL-28 melanoma): 23.2 µM
GI50 (K-562 leukemia): 4.44 µM
TGI (K-562 leukemia): > 100 µM

Cn1c(C(C)(C)OC(=O)Oc2ccccc2)cnc1[N+](=O)[O-]
TGI (IGROV1 ovarian): > 100 µM
TGI (OVCAR-4 ovarian): > 100 µM
TGI (MCF7 breast): > 100 µM
TGI (786-0 renal): > 100 µM
TGI (NCI-H226 lung): > 100 µM
TGI (SW-620 colon): > 100 µM
TGI (HT29 colon): > 100 µM
TGI (MOLT-4 leukemia): 45.8 µM
TGI (SK-OV-3 ovarian): > 100 µM
TGI (COLO 205 colon): > 100 µM
TGI (A498 renal): > 100 µM
TGI (UACC-62 melanoma): > 100 µM
TGI (OVCAR-5 ovarian): > 100 µM
TGI (SNB-19 CNS): > 100 µM
TGI (U251 CNS): > 100 µM
TGI (MDA-MB-231 breast): > 100 µM
TGI (MDA-MB-435): > 100 µM
TGI (KM12 colon): > 100 µM
TGI (ACHN renal): > 100 µM
TGI (RPMI-8226 leukemia): 77.1 µM
TGI (SK-MEL-5 melanoma): > 100 µM
TGI (NCI-H522 lung): > 100 µM
TGI (HOP-92 NSCLC): > 100 µM
TGI (M14 melanoma): > 100 µM
TGI (HCT-116 colon): > 100 µM
TGI (NCI-H23 lung): > 100 µM
TGI (SK-MEL-2 melanoma): > 100 µM
TGI (SR leukemia): 51.7 µM
TGI (OVCAR-3 ovarian): > 100 µM
TGI (T-47D breast): > 100 µM
TGI (SN12C renal): > 100 µM
TGI (UO-31 renal): > 100 µM
TGI (NCI-H460 lung): > 100 µM
TGI (A549 NSCLC): > 100 µM
TGI (BT-549 breast): > 100 µM
TGI (SF-539 CNS): > 100 µM
TGI (NCI/ADR-RES ovarian): > 100 µM
TGI (SF-295 CNS): > 100 µM
TGI (CAKI-1 renal): > 100 µM
TGI (HCT-15 colon): > 100 µM
TGI (UACC-257 melanoma): > 100 µM
TGI (MALME-3M melanoma): > 100 µM
TGI (SF-268 CNS): > 100 µM
TGI (OVCAR-8 ovarian): > 100 µM
TGI (TK-10 renal): > 100 µM
TGI (HL-60(TB) leukemia): > 100 µM
TGI (PC-3 prostate): > 100 µM
TGI (RXF 393 renal): > 100 µM
TGI (HS 578T breast): > 100 µM
TGI (EKVX NSCLC): > 100 µM
TGI (DU-145 prostate): > 100 µM
TGI (HOP-62 NSCLC): > 100 µM
TGI (SNB-75 CNS): > 100 µM
TGI (SK-MEL-28 melanoma): > 100 µM
TGI (K-562 leukemia): > 100 µM

— PubChem BioAssay (NCI)
